Drawing on paper PMC9516332 (Frontiers in Oncology, 2022), this text covers inhibition for seven compounds.

Holding throughout (assay): Kinase panel profiling at 1 µmol/L (MSA or IMAP), percentage inhibition
Common to all, as to assay type: biochemical

Assay [1] concerns the target panel of 255 wild-type kinases (Homo sapiens, UniProt Q5VT25). To be noted: MRCKα; 1 µmol/L single concentration; read-out: %-inhibition, MRCKα.
Assay [2] concerns the target panel of 255 wild-type kinases (Homo sapiens, UniProt P29376). Particulars: kinase LTK; 1 µmol/L single concentration; read-out: %-inhibition at 1 µmol/L, LTK.
Assay [3] deals with T1, panel of 255 wild-type kinases (Homo sapiens, UniProt Q9NZJ5).
T1 sequence (Q9NZJ5 30-1116): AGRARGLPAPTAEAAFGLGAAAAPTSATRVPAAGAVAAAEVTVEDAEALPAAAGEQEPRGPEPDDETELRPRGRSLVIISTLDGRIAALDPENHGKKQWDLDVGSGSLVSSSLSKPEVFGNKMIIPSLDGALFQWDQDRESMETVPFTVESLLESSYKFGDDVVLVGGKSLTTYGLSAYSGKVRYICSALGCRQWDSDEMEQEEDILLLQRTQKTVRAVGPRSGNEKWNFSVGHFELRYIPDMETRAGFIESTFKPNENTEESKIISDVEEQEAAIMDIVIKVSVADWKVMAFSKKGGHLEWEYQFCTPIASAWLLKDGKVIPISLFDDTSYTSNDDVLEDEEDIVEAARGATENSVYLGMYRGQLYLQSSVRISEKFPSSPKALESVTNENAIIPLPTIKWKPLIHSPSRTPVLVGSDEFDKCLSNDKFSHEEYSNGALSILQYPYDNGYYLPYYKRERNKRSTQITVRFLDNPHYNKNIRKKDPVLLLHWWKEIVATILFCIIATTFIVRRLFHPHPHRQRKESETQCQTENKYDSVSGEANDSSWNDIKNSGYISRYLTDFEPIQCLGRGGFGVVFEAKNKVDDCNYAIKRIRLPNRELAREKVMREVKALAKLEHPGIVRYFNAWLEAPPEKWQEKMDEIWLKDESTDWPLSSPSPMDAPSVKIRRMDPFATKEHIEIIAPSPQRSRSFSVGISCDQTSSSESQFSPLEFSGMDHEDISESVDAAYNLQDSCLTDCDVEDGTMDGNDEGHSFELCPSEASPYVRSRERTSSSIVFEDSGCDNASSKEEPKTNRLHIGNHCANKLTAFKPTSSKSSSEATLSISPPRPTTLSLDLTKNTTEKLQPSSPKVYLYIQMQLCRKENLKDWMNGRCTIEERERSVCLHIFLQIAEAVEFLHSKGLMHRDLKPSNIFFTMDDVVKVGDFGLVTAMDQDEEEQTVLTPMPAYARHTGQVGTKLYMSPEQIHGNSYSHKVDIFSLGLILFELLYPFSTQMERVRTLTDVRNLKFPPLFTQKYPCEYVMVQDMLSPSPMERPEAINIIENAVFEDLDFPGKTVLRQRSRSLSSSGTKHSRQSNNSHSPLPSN
To be noted: kinase PEK; 1 µmol/L single concentration; read-out: %-inhibition at 1 µmol/L, PEK.

Assay [4] deals with panel of 255 wild-type kinases (Homo sapiens, UniProt P22607). Particulars: kinase FGFR3; 1 µmol/L single concentration; read-out: %-inhibition at 1 µmol/L, FGFR3.
The target of assay [5] is panel of 255 wild-type kinases (Homo sapiens, UniProt O94804). Particulars: kinase LOK; 1 µmol/L single concentration; read-out: %-inhibition at 1 µmol/L, LOK.
Assay [6] addresses panel of 255 wild-type kinases (Homo sapiens, UniProt P57059). Particulars: kinase SIK; 1 µmol/L single concentration; read-out: %-inhibition at 1 µmol/L, SIK.
Assay [7] addresses T2, panel of 255 wild-type kinases (Homo sapiens, UniProt Q13237).
T2 sequence (Q13237 1-762): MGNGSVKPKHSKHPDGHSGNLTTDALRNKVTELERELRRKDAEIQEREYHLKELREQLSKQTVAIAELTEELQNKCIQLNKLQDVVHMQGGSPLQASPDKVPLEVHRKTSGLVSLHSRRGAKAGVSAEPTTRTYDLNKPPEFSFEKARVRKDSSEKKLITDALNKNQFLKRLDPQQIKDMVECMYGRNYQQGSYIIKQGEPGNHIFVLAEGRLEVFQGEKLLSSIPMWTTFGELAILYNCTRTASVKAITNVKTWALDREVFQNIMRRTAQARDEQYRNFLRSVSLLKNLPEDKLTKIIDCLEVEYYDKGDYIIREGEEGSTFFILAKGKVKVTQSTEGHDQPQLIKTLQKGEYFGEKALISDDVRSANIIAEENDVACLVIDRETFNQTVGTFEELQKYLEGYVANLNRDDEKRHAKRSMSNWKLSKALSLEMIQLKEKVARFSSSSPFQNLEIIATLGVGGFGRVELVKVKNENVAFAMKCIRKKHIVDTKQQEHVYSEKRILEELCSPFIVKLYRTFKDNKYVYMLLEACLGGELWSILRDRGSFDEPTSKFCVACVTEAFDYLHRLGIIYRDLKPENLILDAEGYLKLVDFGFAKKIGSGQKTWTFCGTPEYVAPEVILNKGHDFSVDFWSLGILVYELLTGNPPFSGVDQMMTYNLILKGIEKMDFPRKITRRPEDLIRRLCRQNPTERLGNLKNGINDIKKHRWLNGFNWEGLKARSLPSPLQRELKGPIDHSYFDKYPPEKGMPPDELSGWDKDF
To be noted: CGK2 kinase assay; 1 µmol/L single concentration; read-out: %-inhibition CGK2.

In assay [8] the target is panel of 255 wild-type kinases (Homo sapiens, UniProt Q02763). Particulars: kinase TIE2; 1 µmol/L single concentration; read-out: %-inhibition at 1 µmol/L, TIE2.

Regarding `FC(F)(F)c1ccc(CNc2ccc(Cc3c[nH]c4ncc(Cl)cc34)cn2)cn1` [pexidartinib], the inhibition at 1 µM in assay [1] is 0.771%; in assay [2], 10%; in assay [3] it was -10%; in assay [4] it was 68%; in assay [5] it was 25%; in assay [6], 9%. Also, the inhibition at 1 µM came out at 17% in assay [7] and 14% in assay [8].

As to `CO[C@]1(C(=O)N[C@@H](C)c2ccc(-n3cc(F)cn3)nc2)CC[C@H](c2nc(C)cc(Nc3cc(C)[nH]n3)n2)CC1` [pralsetinib], the inhibition at 1 µM in assay [1] stood at 1.82%; in assay [2], 55%; in assay [3], 2.26%; in assay [4], 96%; in assay [5], 13%; in assay [6] it was 1.69%. In addition, the inhibition at 1 µM in assay [7] was 25%; in assay [8] it was 5.49%.

Take `CCn1c(=O)c(-c2cc(NC(=O)Nc3ccccc3)c(F)cc2Br)cc2cnc(NC)cc21` [ripretinib]: the inhibition at 1 µM in assay [1] is -1.14%; in assay [2] it was 0.637%; in assay [3], 9%; in assay [4], 52%; in assay [5], 53%; in assay [6], 66%. Moreover, the inhibition at 1 µM in assay [7] came to 0.547%; in assay [8], 79%.

Regarding `COc1ccc(CN2C3CC2CN(c2ccc(-c4cc(OCC(C)(C)O)cn5ncc(C#N)c45)cn2)C3)cn1` [selpercatinib], the inhibition at 1 µM in assay [1] was -2.65%; in assay [2], -3%; in assay [3] it was 2.16%; in assay [4], 95%; in assay [5], 40%; in assay [6] it was 9%. The inhibition at 1 µM worked out at 16% in assay [7] and 43% in assay [8].

Turning to `Cn1cnc2c(F)c(Nc3ccc(Br)cc3Cl)c(C(=O)NOCCO)cc21` [selumetinib], the inhibition at 1 µM was 2.24% in assay [1]; 53% in assay [2]; -0.188% in assay [3]; 2.76% in assay [4]; 5% in assay [5]; -3% in assay [6]. For the same compound, the figures for the inhibition at 1 µM in assay [7] and in assay [8] were -1.64% and -9%, respectively.

For `Cc1cc(Nc2ncnc3ccc(NC4=NC(C)(C)CO4)cc23)ccc1Oc1ccn2ncnc2c1` [tucatinib], the inhibition at 1 µM was found to be 0.364% in assay [1]; 49% in assay [2]; 1.59% in assay [3]; 2.63% in assay [4]; 6.43% in assay [5]; 0.717% in assay [6]. Further, the inhibition at 1 µM in assay [7] was -0.162%; in assay [8], -2.82%.

Take `C=CC(=O)N1CCC([C@@H]2CCNc3c(C(N)=O)c(-c4ccc(Oc5ccccc5)cc4)nn32)CC1` [zanubrutinib]: the inhibition at 1 µM in assay [1] was -0.931%; in assay [2] it was 0.209%; in assay [3] it was 2%; in assay [4] it was 4.61%; in assay [5], 5%; in assay [6], -2%. Besides, the inhibition at 1 µM in assay [7] was -0.389%; in assay [8], 2%.
